The assay has as its system dvssj1 frag 1 dsRNA. As to the kind of experiment: CPP·dsRNA complex formation by gel shift assay. The class given is binding. The note with it: 770 nM unlabeled dsRNA (2100 ng); molar ratio 1:4 through 8:1; 1.2% TE agarose gel. As for the experimental part: FIG. 2 Formation of CPP·dsRNA complex as assessed by gel shift assay. FIG. 2A Reactions were assembled as described in Example 3, with increasing amounts of MPG-YFP added to […] Cy3-dsRNA (595.8 ng), from a molar ratio (CPP:dsRNA) of 1:4 through 8:1. After incubation, 20 μL reaction volumes were each mixed with 2 μL 10% molecular biology grade glycerol and electrophoresed on a 1.2% Tris-EDTA (TE) agarose gel and stained with Invitrogen™ SYBR Safe DNA Gel Stain (Thermo Fisher Scientific, Waltham, MA). Effects on mobility of the Cy3-dsRNA band are observed upon increasing molar ratios of MPG-YFP. […] The large relative size of MPG-YFP causes a large band shift. FIG. 2B Reactions were assembled as described in Example 3, with increasing amounts of CyLoP added to 770 nM dsRNA (2100 ng), from a molar ratio of 1:4 through 8:1. […] FIG. 2C Results of MPG-YFP binding to Cy3-dsRNA (described in 2A) assessed by DLS. […] Readings were collected using default settings for protein molecules, at 25° C. with a 15 second equilibration stage, using a Zetasizer Ultra and accompanying software (Malvern Panalytical, Malvern, United Kingdom). The dispersant was adjusted to account for the specific viscosity and refractive index of the complex formation solution prior to calculation of detected sizes. […]

Structures are written as SMILES. Peptide text beside a SMILES is read from it.

Take `N=C(N)NCCC[C@H](NC(=O)[C@H](Cc1c[nH]c2ccccc12)NC(=O)[C@H](CCCNC(=N)N)NC(=O)[C@@H](N)CS)C(=O)N[C@@H](Cc1c[nH]c2ccccc12)C(=O)N[C@@H](CCCCN)C(=O)N[C@@H](CS)C(=O)N[C@@H](CS)C(=O)N[C@@H](CCCCN)C(=O)N[C@@H](CCCCN)C(=O)O` [CyLoP-1, CRWRWKCCKK] (H-CRWRWKCCKK-OH; N-terminus and C-terminus assumed): the “gel shift: apparent size of the RNA band with increasing CPP” value is listed as “binding of CyLoP molecules to the RNA”.

The values are drawn from US20240041050A1, “CELL PENETRATING PEPTIDE MEDIATED RNA TRANSDUCTION WITHIN INSECT CELLS” (PIONEER HI-BRED INTERNATIONAL, INC., priority 2020, published 2024).
